pEC50: −log10 of the molar value. *1 amine or outer side, *2 acyl side, *3 side chain or, on linkers, in order; H or OH if unused. Where a SMILES comes first, the peptide text is derived from it. Side-chain parts run from the residue outwards. [ ]: non-standard residue; d: D form. The star is where a group is joined. C18 diacid = O=C(O)CCCCCCCCCCCCCCCCC(=O)*; γGlu = O=C(O)[C@H](CCC(=O)[*:2])N[*:1]; AEEA = NCCOCCOCC(=O)O; Aib = CC(C)(N)C(=O)O
How the values were obtained:
hNPY1R = target: T1, hNPY1R (Homo sapiens, UniProt P25929); experiment: calcium flux assay (FLIPR), in vitro functional activity on human NPY1 receptor; assay type: cell-based; details: initial concentration 1 µM, average of at least 3 independent tests
T1 sequence (P25929 1-384): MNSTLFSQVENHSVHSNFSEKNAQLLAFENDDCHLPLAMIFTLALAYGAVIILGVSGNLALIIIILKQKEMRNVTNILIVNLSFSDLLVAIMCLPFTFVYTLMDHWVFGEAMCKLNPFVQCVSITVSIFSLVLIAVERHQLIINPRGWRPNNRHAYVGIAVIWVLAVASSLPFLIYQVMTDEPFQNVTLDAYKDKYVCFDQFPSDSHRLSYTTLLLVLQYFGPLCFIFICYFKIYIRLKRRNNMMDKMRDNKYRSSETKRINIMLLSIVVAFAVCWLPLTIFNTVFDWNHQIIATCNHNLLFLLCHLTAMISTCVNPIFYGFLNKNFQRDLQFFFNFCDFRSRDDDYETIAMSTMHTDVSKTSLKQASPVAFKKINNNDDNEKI
Procedure: • 1) Preparation of test analogue and positive reference agonist: the test analogue was diluted 4-fold to 10 concentrations using Bravo, transferred 900 nL to the analogue plate using Echo, and then added with 30 µL of detection buffer (20 mM HEPES, 1×HBSS, 0.1% casein) to each well. The initial concentration of the test analogue and the positive reference agonist were 1 µM. • 2) The cell plate was removed from the incubator (cell Y1 needs to be removed of the culture medium and added with 20 µL of detection buffer, otherwise they will all be a high signal; it is not necessary for Y5), added with 2*Fluo-4 detection reagent, 20 µL per well, incubated in a 37°C incubator for 50 minutes, and then left to stand at room temperature for 10 minutes. • 3) The cell plate, the analogue plate, and the pipette tip were placed into the FLIPR instrument, the instrument was started, and 10 µL of analogue was transferred from the analogue plate to the cell plate. […] Using the logarithm of the concentration of analogues as the horizontal axis and the activation rate of calcium ion fluorescence signal as the vertical axis, the "Nonlinear regression (curve fit)-log (antigen) vs. response Variable slope" model in GraphPad Prism 5.0 was used for fitting to calculate the EC50 of the sample.

[1] = target: T2, recombinant human NPY2 receptor (Homo sapiens, UniProt P49146); experiment: cAMP assay, in vitro functional activity on NPY2 receptors (inhibition of Forskolin-induced cAMP production); assay type: cell-based; details: HEK 293 cells overexpressing recombinant human NPY2 receptor; average of at least 3 independent tests; read-out: hNPY2R EC50
T2 construct: expressed in transfected cells; host or cells: HEK 293
T2 sequence (P49146 1-381): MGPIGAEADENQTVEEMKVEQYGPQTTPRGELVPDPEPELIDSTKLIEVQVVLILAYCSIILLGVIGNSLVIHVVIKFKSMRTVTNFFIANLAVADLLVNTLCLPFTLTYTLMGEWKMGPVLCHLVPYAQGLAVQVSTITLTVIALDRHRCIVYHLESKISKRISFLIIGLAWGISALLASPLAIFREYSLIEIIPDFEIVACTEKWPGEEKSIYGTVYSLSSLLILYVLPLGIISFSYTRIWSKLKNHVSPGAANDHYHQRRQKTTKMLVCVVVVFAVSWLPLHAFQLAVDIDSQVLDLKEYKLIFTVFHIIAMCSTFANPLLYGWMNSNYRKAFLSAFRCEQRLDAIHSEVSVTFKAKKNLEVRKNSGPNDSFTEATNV
Procedure: After addition, they were centrifuged at 1000 rpm for 1 minute. • 5) 5 µL of 2 µM Forskolin (prepared with detection buffer) was added to a 384-well cell reaction plate using Multidrop Combi and centrifuged at 1000 rpm for 1 minute. 5 µL of detection buffer containing cells was added to a 384-well reaction plate, ensuring a cell count of 3000 cells per well. […] It was covered with a lid and incubated at room temperature in the dark for 1 hour. • 7) After incubation for 1 hour, it was placed in an EnVision microplate reader for measurement.

[2] = plasma pharmacokinetics in crab-eating macaques (LC-MS/MS); assay type: in vivo; details: monkey, sc, male crab-eating macaques, single subcutaneous 0.246 mg/kg
Procedure: (§1) Blood samples were collected from each animal at each time point after administration, and the blood samples were centrifuged at around 4°C, 3200 g, for 10 minutes. Plasma was collected separately, transferred to pre-labeled 96-well plates or polypropylene tubes, speedily frozen on dry ice, and stored at -60°C or lower until LC-MS/MS analysis.
(§2) LC-MS/MS method was adopted to determine the concentration of the measured analogues in blood samples. The data on the changes in plasma concentration over time were plotted into a chart and analyzed using non partitioned methods with Phoenix WinNonlin 6.3 software program. Relevant PK parameters were calculated based on the administration routes.
The plasma pharmacokinetics of PYY analogues in male crab-eating macaques were evaluated after a single subcutaneous administration of 0.246 mg/kg Analogue 3. Blood samples were collected from 2 crab-eating macaques at each time point after administration for 1h, 2h, 4h, 8h, 12h, 24h, 48h, 72h, 96h, 120h, 144h, 168h, 192h, 240h, 288h, 336h, 408h, 504h, extending to 504 hours. Due to the use of discontinuous sampling to evaluate the kinetics of PYY analogues in crab-eating macaques, the pharmacokinetic parameters of Analogue 3 after a single subcutaneous administration of 0.246 mg/kg were listed using average concentration-time data.

[3] = plasma pharmacokinetics in SD rats (LC-MS/MS); assay type: in vivo; details: rat, sc, male rats, single subcutaneous 0.492 mg/kg
Procedure: as §1, §2
The plasma pharmacokinetics of PYY analogues in male SD rats were evaluated after a single subcutaneous administration of 0.492 mg/kg Analogue 3. Blood samples were collected from 3 rats at each time point after administration for 0.5h, 1h, 2h, 4h, 8h, 12h, 16h, 24h, 48h, 72h, 96h, 120h, 144h, 168h, extending to 168h. Due to the use of discontinuous sampling to evaluate the kinetics of PYY analogues in rats, the pharmacokinetic parameters of Analogue 3 after a single subcutaneous administration of 0.492 mg/kg were listed using average concentration-time data.

| pEC50 (hNPY1R) | pEC50 [1] | AUC(0-inf) [2] | Cmax [2] | Tmax [2] | half-life [2] | AUC(0-inf) [3] | Cmax [3] | Tmax [3] | half-life [3] | SMILES |
| --- | --- | --- | --- | --- | --- | --- | --- | --- | --- | --- |
| < 7.30 | – | – | – | – | – | – | – | – | – | CC(C)C[C@H](NC(=O)[C@H](Cc1ccc(O)cc1)NC(=O)[C@H](Cc1c[nH]cn1)NC(=O)[C@H](CCCNC(=N)N)NC(=O)[C@H](CC(C)C)NC(=O)[C@H](CO)NC(=O)C(C)(C)NC(=O)[C@H](Cc1ccc(O)cc1)NC(=O)[C@H](Cc1ccc(O)cc1)NC(=O)[C@H](CCCNC(=N)N)NC(=O)[C@H](CCC(N)=O)NC(=O)[C@H](Cc1c[nH]c2ccccc12)NC(=O)[C@H](CCC(=O)O)NC(=O)[C@H](CCC(=O)O)NC(=O)[C@@H]1CCCN1C(=O)[C@H](CO)NC(=O)C(C)(C)NC(=O)[C@H](CC(=O)O)NC(=O)[C@H](CCC(=O)O)NC(=O)[C@H](CCC(=O)O)NC(=O)[C@@H]1CCCN1C(=O)[C@H](CCCCNC(=O)COCCOCCNC(=O)CC[C@H](NC(=O)CCCCCCCCCCCCCCCCC(=O)O)C(=O)O)NC(=O)[C@H](CCC(=O)O)NC(=O)[C@@H]1CCCN1C(=O)[C@H](CCCCN)NC(=O)[C@@H]1CCCN1)C(=O)N[C@@H](CC(N)=O)C(=O)N[C@@H](Cc1c[nH]c2ccccc12)C(=O)N[C@@H](CC(C)C)C(=O)N[C@H](C(=O)N[C@@H](CCCNC(=N)N)C(=O)N[C@@H](CCC(N)=O)C(=O)N[C@@H](CCCNC(=N)N)C(=O)N[C@@H](Cc1ccc(O)cc1)C(N)=O)[C@@H](C)O [Analogue 1] (H-PKPEK([AEEA-γGlu-C18 diacid])PEED[Aib]SPEEWQRYY[Aib]SLRHYLNWLTRQRY-NH2) |
| < 7.30 | 10.43 | – | – | – | – | – | – | – | – | CC(C)C[C@H](NC(=O)[C@H](CCC(=O)O)NC(=O)[C@H](C)NC(=O)[C@H](Cc1ccc(O)cc1)NC(=O)[C@H](Cc1ccc(O)cc1)NC(=O)[C@H](CCCNC(=N)N)NC(=O)[C@H](CCC(N)=O)NC(=O)[C@H](Cc1c[nH]c2ccccc12)NC(=O)[C@H](CCC(=O)O)NC(=O)[C@H](CCC(=O)O)NC(=O)[C@@H]1CCCN1C(=O)[C@H](CO)NC(=O)[C@H](C)NC(=O)[C@H](CC(=O)O)NC(=O)C(C)(C)NC(=O)[C@H](CCC(=O)O)NC(=O)[C@@H]1CCCN1C(=O)[C@H](CCCCNC(=O)COCCOCCNC(=O)CC[C@H](NC(=O)CCCCCCCCCCCCCCCCC(=O)O)C(=O)O)NC(=O)[C@H](CCC(=O)O)NC(=O)[C@@H]1CCCN1C(=O)[C@H](CCCCN)NC(=O)[C@@H]1CCCN1)C(=O)N[C@@H](CCCNC(=N)N)C(=O)N[C@@H](Cc1c[nH]cn1)C(=O)N[C@@H](Cc1ccc(O)cc1)C(=O)N[C@@H](CC(C)C)C(=O)N[C@@H](CC(N)=O)C(=O)N[C@@H](Cc1c[nH]c2ccccc12)C(=O)N[C@@H](CC(C)C)C(=O)N[C@H](C(=O)N[C@@H](CCCNC(=N)N)C(=O)N[C@@H](CCC(N)=O)C(=O)N[C@@H](CCCNC(=N)N)C(=O)N[C@@H](Cc1ccc(O)cc1)C(N)=O)[C@@H](C)O [Analogue 2] |
| < 7.30 | 10.43 | 337 µg·h/mL | 1780 ng/mL | 12 h | 126 h | 79.6 µg·h/mL | 1940 ng/mL | 13.3 h | 24.7 h | CC(C)C[C@H](NC(=O)[C@H](Cc1ccc(O)cc1)NC(=O)[C@H](Cc1c[nH]cn1)NC(=O)[C@H](CCCNC(=N)N)NC(=O)[C@H](CC(C)C)NC(=O)[C@H](CCC(=O)O)NC(=O)C(C)(C)NC(=O)[C@H](Cc1ccc(O)cc1)NC(=O)[C@H](Cc1ccc(O)cc1)NC(=O)[C@H](CCCNC(=N)N)NC(=O)[C@H](CCC(N)=O)NC(=O)[C@H](Cc1c[nH]c2ccccc12)NC(=O)[C@H](CCC(=O)O)NC(=O)[C@H](CCC(=O)O)NC(=O)[C@@H]1CCCN1C(=O)[C@H](CO)NC(=O)[C@H](C)NC(=O)[C@H](CC(=O)O)NC(=O)C(C)(C)NC(=O)[C@H](CCC(=O)O)NC(=O)[C@@H]1CCCN1C(=O)[C@H](CCCCNC(=O)COCCOCCNC(=O)CC[C@H](NC(=O)CCCCCCCCCCCCCCCCC(=O)O)C(=O)O)NC(=O)[C@H](CCC(=O)O)NC(=O)[C@@H]1CCCN1C(=O)[C@H](CCCCN)NC(=O)[C@@H]1CCCN1)C(=O)N[C@@H](CC(N)=O)C(=O)N[C@@H](Cc1c[nH]c2ccccc12)C(=O)N[C@@H](CC(C)C)C(=O)N[C@H](C(=O)N[C@@H](CCCNC(=N)N)C(=O)N[C@@H](CCC(N)=O)C(=O)N[C@@H](CCCNC(=N)N)C(=O)N[C@@H](Cc1ccc(O)cc1)C(N)=O)[C@@H](C)O [Analogue 3] |

Source: patent EP4696708A1, “PEPTIDE TYROSINE-TYROSINE ANALOG AND USE THEREOF” (The United Bio-Technology (Hengqin) Co., Ltd., priority 2023, dated 2024)
